Laboratory results: the supplement of paper PMC4862054

Assays:
Test in all cases: normalised response (% of control), CellTiter-Glo; higher = more viable cells (100 = DMSO, 0 = benzethonium chloride kill control)
Details in all cases: incubation time: 72 h
[1] = test system: SK-BR-3
Procedure, shortened: (§1)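 CellTox Green fluorescence (485/520 nm) and, after 10 min at room temperature, CellTiter-Glo luminescence were read from breast cancer cell lines incubated 72 h in 384-well plates. Cells were seeded as 20 µl suspension onto compound at 5 concentrations in 10-fold steps over a 10,000-fold range chosen per compound. Each plate was normalised to 0.1 % DMSO (100) and a positive kill control (0). Values are normalised signals, one per concentration.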

[2] = test system: CAL-51
Procedure, shortened: as §1

[3] = test system: MDA-MB-453
Procedure, shortened: as §1

[4] = test system: CAL-120
Procedure, shortened: as §1

[5] = test system: MFM-223
Procedure, shortened: as §1

[6] = test system: MCF-10A
Procedure, shortened: as §1

[7] = test system: DU-4475
Procedure, shortened: as §1

[8] = test system: Hs578T
Procedure, shortened: as §1

[9] = test system: HDQ-P1
Procedure, shortened: as §1

[10] = test system: HCC1937
Procedure, shortened: as §1

[11] = test system: MDA-MB-231
Procedure, shortened: as §1

[12] = test system: BT-549
Procedure, shortened: as §1

[13] = test system: CAL-148
Procedure, shortened: as §1

[14] = test system: HCC1599
Procedure, shortened: as §1

[15] = test system: CAL-85-1
Procedure, shortened: as §1

[16] = test system: MDA-MB-468
Procedure, shortened: as §1

[17] = test system: HCC1143
Procedure, shortened: as §1

[18] = test system: MDA-MB-436
Procedure, shortened: as §1

[19] = test system: BT-474
Procedure, shortened: as §1

| SMILES | normalised response [1] [%] | normalised response [2] [%] | normalised response [3] [%] | normalised response [4] [%] | normalised response [5] [%] | normalised response [6] [%] | normalised response [7] [%] | normalised response [8] [%] | normalised response [9] [%] | normalised response [10] [%] | normalised response [11] [%] | normalised response [12] [%] | normalised response [13] [%] | normalised response [14] [%] | normalised response [15] [%] | normalised response [16] [%] | normalised response [17] [%] | normalised response [18] [%] | normalised response [19] [%] |
| --- | --- | --- | --- | --- | --- | --- | --- | --- | --- | --- | --- | --- | --- | --- | --- | --- | --- | --- | --- |
| Cc1c(C(=O)Nc2ccc(N3C[C@@H](C)O[C@@H](C)C3)nc2)cccc1-c1ccc(OC(F)(F)F)cc1 [Erismodegib] (1 nM) | 91.3 | 88.2 | 96.1 | 99.2 | 96.7 | 84.4 | 97.5 | 91.6 | 94.1 | 96.1 | 99 | 93.8 | 91.7 | 102 | 97.8 | 99.8 | 93.8 | 85.3 | 93.9 |
| Cc1c(C(=O)Nc2ccc(N3C[C@@H](C)O[C@@H](C)C3)nc2)cccc1-c1ccc(OC(F)(F)F)cc1 [Erismodegib] (10 nM) | 69.9 | 127 | 81.8 | 91.7 | 91.9 | 86 | 101 | 101 | 95.5 | 96.3 | 99.2 | 99.6 | 94.6 | 104 | 95.2 | 86.6 | 93.4 | 91.9 | 92.9 |
| CC(C)C(=O)Nc1ccc([N+](=O)[O-])c(C(F)(F)F)c1 [Flutamide] (10 nM) | 124 | 126 | 109 | 97.6 | 99.6 | 103 | 102 | 98.6 | 98.4 | 102 | 95.7 | 96.4 | 92.1 | 105 | 96.2 | 96 | 98.6 | 99.8 | 101 |
| COc1cc2c(Oc3ccc(NC(=O)C4(C(=O)Nc5ccc(F)cc5)CC4)cc3F)ccnc2cc1OCCCN1CCOCC1 [Foretinib] (1 nM) | 97.6 | 106 | 108 | 99.7 | 102 | 102 | 100 | 97.4 | 97.7 | 95 | 99 | 98.4 | 101 | 94.3 | 94.8 | 99.4 | 102 | 99.2 | 104 |
| COc1cc(Nc2ncc(F)c(Nc3ccc4c(n3)N(COP(=O)(O)O)C(=O)C(C)(C)O4)n2)cc(OC)c1OC [Fostamatinib] (0.25 nM) | 98 | 83.5 | 99.4 | 107 | 94.9 | 103 | 96.2 | 99.2 | 99.1 | 106 | 101 | 107 | 93.3 | 111 | 99.3 | 97.4 | 100 | 110 | 97.2 |
| COc1cc(Nc2ncc(F)c(Nc3ccc4c(n3)N(COP(=O)(O)O)C(=O)C(C)(C)O4)n2)cc(OC)c1OC [Fostamatinib] (2.5 nM) | 92.7 | 73.5 | 104 | 105 | 98.8 | 97.7 | 93.8 | 102 | 110 | 99.6 | 96.2 | 102 | 97.7 | 87.7 | 99.7 | 96.7 | 102 | 92.9 | 103 |
| CC(C)NC[C@@H](C(=O)N1CCN(c2ncnc3c2[C@H](C)C[C@H]3O)CC1)c1ccc(Cl)cc1 [GDC-0068] (1 nM) | 103 | 71 | 102 | 95.9 | 98.9 | 106 | 99.9 | 101 | 99.8 | 102 | 103 | 97.7 | 95.3 | 100 | 98.9 | 94.1 | 97.3 | 96.9 | 99.3 |
| CCCc1cc(C)[nH]c(=O)c1CNC(=O)c1cc(-c2ccnc(N3CCN(C)CC3)c2)cc2c1cnn2C(C)C [GSK343] (1 nM) | 91.9 | 116 | 99.5 | 95.5 | 94.7 | 99.5 | 92.7 | 105 | 98 | 93.4 | 92.5 | 100 | 84.4 | 80.2 | 102 | 89 | 87.7 | 97.3 | 94.2 |
| CCCc1cc(C)[nH]c(=O)c1CNC(=O)c1cc(-c2ccnc(N3CCN(C)CC3)c2)cc2c1cnn2C(C)C [GSK343] (10 nM) | 109 | 81.4 | 94.2 | 97 | 93.3 | 103 | 94 | 101 | 97.6 | 103 | 91.7 | 96.5 | 80.2 | 103 | 91.6 | 87.4 | 104 | 91.1 | 97.2 |
| NC(=O)NO [Hydroxyurea] (100 nM) | 93.5 | 89.7 | 112 | 97.8 | 108 | 104 | 101 | 102 | 97.3 | 96 | 98.5 | 97.7 | 102 | 94.1 | 99.8 | 101 | 104 | 96.3 | 99.5 |
| COc1cc2c(cc1-c1c(C)noc1C)ncc1[nH]c(=O)n([C@H](C)c3ccccn3)c12 [I-BET151] (1 nM) | 97.8 | 81.1 | 102 | 101 | 97.8 | 109 | 103 | 101 | 106 | 96.6 | 99.5 | 99.7 | 104 | 103 | 103 | 95.9 | 105 | 98.5 | 96.7 |
| CC(C)n1nc(-c2ccc3oc(N)nc3c2)c2c(N)ncnc21 [INK128] (0.1 nM) | 96 | 106 | 101 | 91 | 89.8 | 90.6 | 90.2 | 96.3 | 87.9 | 89.1 | 92.1 | 93.9 | 92.2 | 94.7 | 96.6 | 93.3 | 86.4 | 79.1 | 90.8 |
| CC(C)n1nc(-c2ccc3oc(N)nc3c2)c2c(N)ncnc21 [INK128] (1 nM) | 85.9 | 116 | 88.3 | 92.2 | 90.1 | 96.2 | 94.1 | 98.9 | 95.8 | 96.9 | 95.9 | 89 | 93.2 | 100 | 96.7 | 93.6 | 94.5 | 96.5 | 88.9 |
| O=NN(CCCl)C(=O)NC1CCCCC1 [Lomustine] (10 nM) | 90.8 | 120 | 106 | 98.3 | 104 | 107 | 102 | 108 | 102 | 102 | 99.4 | 98.3 | 98.6 | 83.8 | 95 | 92.5 | 103 | 95.2 | 105 |
| O=C(O)CC[C@H]1CC[C@@](c2cc(F)ccc2F)(S(=O)(=O)c2ccc(Cl)cc2)CC1 [MK-0752] (1 nM) | 102 | 87.3 | 111 | 102 | 112 | 113 | 104 | 104 | 95.6 | 98.7 | 102 | 93 | 107 | 97.5 | 102 | 98.5 | 99.5 | 101 | 103 |
| NC1(c2ccc(-c3nc4ccn5c(=O)[nH]nc5c4cc3-c3ccccc3)cc2)CCC1 [MK-2206] (1 nM) | 112 | 80.6 | 100 | 99.2 | 109 | 106 | 104 | 96.5 | 96.5 | 92.6 | 103 | 92.9 | 112 | 105 | 95.9 | 101 | 103 | 104 | 111 |
| NC(=O)c1cccc2cn(-c3ccc([C@@H]4CCCNC4)cc3)nc12 [MK-4827] (10 nM) | 83.4 | 125 | 105 | 107 | 104 | 114 | 104 | 98.4 | 93.7 | 96.9 | 101 | 101 | 108 | 104 | 106 | 98.6 | 107 | 107 | 110 |
| N[C@@H](Cc1ccc(N(CCCl)CCCl)cc1)C(=O)O [Melphalan] (1.25 nM) | 96.3 | 114 | 93.3 | 100 | 95.1 | 104 | 95.5 | 109 | 106 | 103 | 100 | 97.8 | 93.2 | 116 | 96.5 | 91.7 | 98.7 | 109 | 98.7 |
| N[C@@H](Cc1ccc(N(CCCl)CCCl)cc1)C(=O)O [Melphalan] (12.5 nM) | 95 | 75.2 | 104 | 101 | 99.5 | 101 | 99.3 | 104 | 103 | 102 | 102 | 100 | 96.2 | 133 | 99.4 | 95.4 | 95.3 | 103 | 103 |
| O=C(c1cc(Cc2n[nH]c(=O)c3ccccc23)ccc1F)N1CCN(C(=O)C2CC2)CC1 [Olaparib] (10 nM) | 100 | 110 | 97.8 | 93.2 | 93 | 99.5 | 102 | 98.6 | 96.2 | 101 | 90.2 | 98.2 | 98.9 | 113 | 108 | 101 | 95.6 | 91.8 | 97.1 |
